Experimental data taken from BigSolDB 2.1.

O=C(O)c1cccc([N+](=O)[O-])c1C(=O)O
Conditions | solubility (mole fraction)
in 1,4-dioxane, 288.17 K | 0.0758
in 1,4-dioxane, 293.28 K | 0.0868
in 1,4-dioxane, 298.31 K | 0.097
in 1,4-dioxane, 303.29 K | 0.107
in 1,4-dioxane, 308.26 K | 0.116
in 1,4-dioxane, 313.2 K | 0.124
in 1,4-dioxane, 318.21 K | 0.132
in 1,4-dioxane, 323.29 K | 0.139
in 1,4-dioxane, 328.19 K | 0.146
in 1,4-dioxane, 333.18 K | 0.152
in 1,4-dioxane, 338.22 K | 0.158
in 1,4-dioxane, 343.16 K | 0.163
in 1,4-dioxane, 348.23 K | 0.167
in 1,4-dioxane, 353.32 K | 0.171
in THF, 278.28 K | 0.203
in THF, 283.17 K | 0.204
in THF, 288.16 K | 0.204
in THF, 293.21 K | 0.205
in THF, 298.29 K | 0.206
in THF, 303.28 K | 0.207
in THF, 308.19 K | 0.208
in THF, 313.23 K | 0.209
in THF, 318.24 K | 0.21
in THF, 323.16 K | 0.211
in THF, 328.19 K | 0.213
in THF, 333.17 K | 0.214
in acetone, 278.16 K | 0.0525
in acetone, 283.18 K | 0.0541
in acetone, 288.27 K | 0.056
in acetone, 293.33 K | 0.0582
in acetone, 298.24 K | 0.0604
in acetone, 303.19 K | 0.0629
in acetone, 308.32 K | 0.0657
in acetone, 313.16 K | 0.0685
in acetone, 318.2 K | 0.0717
in ethyl acetate, 283.2 K | 0.00793
in ethyl acetate, 288.26 K | 0.00847
in ethyl acetate, 293.28 K | 0.00902
in ethyl acetate, 298.19 K | 0.00958
in ethyl acetate, 303.21 K | 0.0102
in ethyl acetate, 308.3 K | 0.0109
in ethyl acetate, 313.16 K | 0.0116
in ethyl acetate, 318.22 K | 0.0124
in ethyl acetate, 323.16 K | 0.0134
in ethyl acetate, 328.23 K | 0.0144
in ethyl acetate, 333.17 K | 0.0156
in ethyl formate, 283.17 K | 0.00268
in ethyl formate, 288.18 K | 0.00287
in ethyl formate, 293.21 K | 0.00309
in ethyl formate, 298.26 K | 0.00335
in ethyl formate, 303.16 K | 0.00363
in ethyl formate, 308.19 K | 0.00396
in ethyl formate, 313.27 K | 0.00433
in ethyl formate, 318.25 K | 0.00473
in ethyl formate, 323.29 K | 0.00517
in methyl acetate, 278.17 K | 0.0334
in methyl acetate, 283.26 K | 0.0343
in methyl acetate, 288.27 K | 0.0353
in methyl acetate, 293.21 K | 0.0365
in methyl acetate, 298.24 K | 0.0378
in methyl acetate, 303.16 K | 0.0392
in methyl acetate, 308.22 K | 0.0407
in methyl acetate, 313.28 K | 0.0422
in methyl acetate, 318.17 K | 0.0437
in methyl acetate, 323.19 K | 0.0452
in n-butyl acetate, 283.18 K | 0.00243
in n-butyl acetate, 288.16 K | 0.00297
in n-butyl acetate, 293.21 K | 0.00353
in n-butyl acetate, 298.19 K | 0.0041
in n-butyl acetate, 303.22 K | 0.0047
in n-butyl acetate, 308.26 K | 0.00531
in n-butyl acetate, 313.27 K | 0.00594
in n-butyl acetate, 318.18 K | 0.00657
in n-butyl acetate, 323.22 K | 0.00724
in n-butyl acetate, 328.24 K | 0.00792
in n-butyl acetate, 333.19 K | 0.0086
in n-butyl acetate, 338.28 K | 0.00933
in n-butyl acetate, 343.25 K | 0.0101
in n-butyl acetate, 348.24 K | 0.0108
in n-butyl acetate, 353.26 K | 0.0116
in water, 283.18 K | 0.00115
in water, 288.26 K | 0.00129
in water, 293.27 K | 0.00152
in water, 298.21 K | 0.00179
in water, 303.19 K | 0.00211
in water, 308.22 K | 0.0025
in water, 313.19 K | 0.003
in water, 318.29 K | 0.00367
in water, 323.18 K | 0.00451
in water, 328.31 K | 0.00569
in water, 333.22 K | 0.00724
in water, 338.18 K | 0.00943
in water, 343.17 K | 0.0126
in water, 348.16 K | 0.0172
in water, 353.28 K | 0.0241
